Laboratory results from patent US20120196766A1, “Therapeutic Use of Farnesyltransferase Inhibitors and Methods of Monitoring the Efficacy Thereof” (priority 2004, published 2012).

Key:
human PBMC = assay: LPS-induced cytokine production in human PBMC; type: cell-based
Method: Human IL-6, IL18, IL1β, MCP-1, MMP-9, and mouse IL-6, IL18, TNFα, MCP-1 and IL-1β were measured with ELISA kits (R&D Systems) according to the manufacturer's instructions.
Heparinized human blood (25 ml) from a healthy donor was overlaid into a 50 ml conical tubes containing 20 ml Ficoll-Paque, and centrifuged for 20 min at 2000 rpm at room temperature and then allowed to stop without using the brake on the centrifuge. The upper layer was aspirated, leaving the mononuclear cell layer undisturbed at the interface. Cells were carefully transferred the to a new […] conical tube. The conical tube was filled with PBS, mixed and centrifuged at 1500 rpm for 15 minutes at room temperature. The supernatant was carefully and completely removed. The cell pellet was resupended in 50 ml of PBS and centrifuged at 1500 rpm for 5 minutes. This wash step was repeated once more. The cells were counted and resuspended cells at 1.7×10^6/ml in low-endotoxin RPMI1640/10% FBS.
Human PBMC (180 μl at 1.7×10^6/ml) were pipetted into each well of a 96-well plate. […] Cells were incubated at 37° C., under 5% CO2 for 1 hour, then 10 μl LPS (diluted in medium) were added per well to reach a final concentration of 10 ng/ml. Cells were cultured at 37° C., under 5% CO2. Supernatants were collected at 16 hours, 24 hours and 40 hours of LPS treatment, and IL-6 secretion was quantified.

[1] = cited from earlier work
[2] = test system: collagen-induced arthritis; conditions: WO 00/01386; cited from earlier work
cachexia = conditions: US 2004/0157773, WO 02/085364; cited from earlier work
THP-1 cells = assay: Western blot analysis of LPS, TNF-α and IL-1α induced signaling in THP-1 cells; type: cell-based, Human
Method: THP-1 cells in 0.5% FBS/RPMI were pre-treated with or without tipifarnib for 18 hours, and subsequently stimulated with LPS (100 ng/ml), TNF-α (10 ng/ml) or IL-1α (5 ng/ml) for 30 minutes. Cells were harvested, washed three times in ice-cold PBS, and lysed in lysis buffer (20 mM Tris (pH 7.5), 150 mM NaCl, 1 mM EDTA, 1 mM EGTA, 1% Triton X-100, 2.5 mM sodium pyrophosphate, 1 mM ([…], 1 mM Na3VO4, 1 μg/ml Leupeptin, 1 mM PMSF). Cell lysates from each sample were mixed with an equal amount of 2× SDS-PAGE sample buffer (Invitrogen), and proteins were separated by electrophoresis in Tris-glycine 10-20% gradient gels (Novex), and transferred to nitrocellulose membranes (PROTRAN; Schleicher & Schuell). The membranes were blocked with 3% BSA in PBS-0.05% Tween-20, and sequentially incubated with primary antibodies and HRP-conjugated secondary antibodies (anti-rabbit IgG or anti-mouse IgG and IgM; PIERCE), followed by ECL detection (Amersham Biosciences). The primary antibodies used were rabbit polyclonal anti-IκBa, and -p38 (Santa Cruz), mouse monoclonal anti-H-Ras (Chemicon), mouse monoclonal anti-phospho-p38 and rabbit polyclonal anti-phospho-Erk (Cell Signaling Technology).

## Cn1cncc1C(N)(c1ccc(Cl)cc1)c1ccc2c(c1)c(-c1cccc(Cl)c1)cc(=O)n2C (single isomer, unassigned; (+)) [tipifarnib, (+)-6-[amino(4-chlorophenyl)(1-methyl-1H-imidazol-5-yl)methyl]-4-(3-chlorophenyl)-1-methyl-2(1H)-quinolinone]
Human PBMC; tipifarnib 2 μM, LPS 10 ng/ml, 10% FBS
  LPS-induced IL-6 production: no effect
Human PBMC; tipifarnib 5 μM, 24 hours, not statistically significant (P=0.104)
  IL-6 mean value lower than in absence of compound: approximately 40%
Human PBMC; tipifarnib 5 μM, after 16 and 40 hours
  LPS-induced IL-6 production: highly significant inhibition
[1]; at 300 mg twice a day (Karp, Lancet et al. 2001)
  plasma levels: approximately 2 μM
[1]; in a number of studies (Head and Johnston 2003)
  maximum tolerated dose: 300 mg twice a day
[2]
  disease scores: reduction of disease scores
cachexia
  cachexia: inhibition
THP-1 cells; 2 μM tipifarnib for 18 hours
  IκB degradation induced by IL-1α: no inhibition
  IκB degradation induced by TNF-α: no inhibition
  LPS-induced IκB degradation: significantly inhibited
  LPS-induced p38 phosphorylation: partially reduced
  P38 protein expression: not affected
  TNF-α induced p38 phosphorylation: No significant inhibition
THP-1 cells; tipifarnib pre-treatment, all treatment groups
  H-Ras farnesylation: partially inhibited
THP-1 cells; tipifarnib pre-treatment, control and stimulated cells
  ERK phosphorylation: reduced
